Results from patent US6949558B2, “Enhancement of taxane-based chemotherapy by a CDK1 antagonist” (Yale University, priority 2001, dated 2005).

How the values were obtained:
[1] = tested on: survivin expression in HeLa cells; assay: Survivin expression by Western blotting in HeLa cells; format: cell-based, human
Protocol: (§1) Cell Cultures, Proteins and Antibodies: Breast carcinoma MCF-7 and cervical carcinoma HeLa cells (American Type Culture Collection, Manassas, Va.) were maintained in culture according to the manufacturer's specifications. For treatment with genotoxic agents, HeLa or MCF-7 cells were incubated with vehicle (DMSO) or taxol (2 μM, Sigma Chemical Co., St. Louis, Mo.), adriamycin (100 nM, Sigma), cis-platin (3 μM, Sigma) or subjected to ultraviolet B (UVB) irradiation at 50 or 300 J/m^2. In some experiments, HeLa or MCF-7 treated with taxol, adriamycin or UVB as described above were incubated with inhibitors of transcription (actinomycin D, 1 μg/ml) or translation (cycloheximide, 2 mg/ml) before determination of protein expression by Western blotting. […] A replication-deficient adenovirus encoding wild type survivin (pAd-Survivin) or control encoding Green Fluorescence Protein (pAd-GFP) was generated using the pAd-Easy system as described previously (M. Mesri et al. (2001) J. Clin. Invest. 108: 981-90), and propagated in HEK293 cells with purification by CsCl banding. […] Antibodies to p34^cdc2 or bcl-2 were obtained from Pharmingen (San Diego, Calif.) and R&D, respectively. An antibody to β-actin was from Sigma and antibodies to MPM-2 mitotic phosphoproteins was from Upstate Biotechnology (Lake Placid, N.Y.).
(§2) In some experiments, total RNA was extracted from MCF-7 cells at various time intervals after adriamycin treatment, and hybridized with 32 P-labeled survivin cDNA as described previously. Radioactive bands were detected by autoradiography. […] In other experiments, samples were transferred to nylon membranes and analyzed by Western blotting with antibodies to p34^cdc2 (1 μg/ml), survivin (2 μg/ml), or survivinT34* (5 μg/ml).
In other experiments, HeLa cells were treated with taxol (0.2 μM) for 16 h followed by the DNA damaging agent adriamycin (100 nM, Sigma) or the nucleoside analog 5-Fluorouracil (500 μM, Sigma) for 8-32 h at 37° C. […] In some experiments, HeLa cells were transfected by lipofectamine with a minimal survivin promoter construct upstream of a luciferase reporter gene (pLuc-cyc1.2), as described (F. Li et al. (1998) Nature 396: 580-584). Cells were treated with taxol (2 μM) or UVB (50 J/m2), and analyzed for changes in luciferase activity at increasing time intervals (12-36 h) in a luminometer. Luciferase values were normalized to β-galactosidase expression. […] The immune complexes were separated by SDS gel electrophoresis and analyzed with antibodies to survivin or a-survivinT34* by Western blotting.

HeLa cells = assay: Apoptosis by DNA content analysis and flow cytometry in HeLa cells; format: cell-based, human; details: increasing flavopiridol concentrations, 48 h
[2] = tested on: Bcl-2 expression in HeLa cells; assay: Bcl-2 expression by Western blotting in HeLa cells; format: cell-based, human; details: flavopiridol, 48 h
Protocol: A. Concentration-dependence. […] B. Time-course. […] C. […] The experimental conditions are the same as in A, except that flavopiridol-treated HeLa cells were analyzed by Western blotting with an antibody to Bcl-2. D. Effect of genistein or TNF a on survivin expression. HeLa cells were treated with the tyrosine kinase inhibitor genistein (25 μM) or TNF a (5 ng/ml) for 48 h, harvested and analyzed for survivin expression by Western blotting. For all panels, relative molecular weight markers in kDa are shown on the left. E. Flavopiridol-induced apoptosis. […] The percentage of apoptotic cells with sub-G1DNA content is indicated. Insert, nuclear morphology of apoptosis (DNA fragmentation, chromatin condensation) in untreated or flavopiridol-treated HeLa cells, by DAPI staining.
as §2

[3] = tested on: survivin phosphorylation on Thr^34 in HeLa cells; assay: Survivin phosphorylation on Thr^34 in HeLa cells (immunoprecipitation, Western blotting); format: cell-based, human; details: increasing concentrations of flavopiridol, 24 h
Protocol: (§3) A. In vitro kinase assay. […] Radioactive bands were detected by autoradiography. […] The immune complexesb were analyzed by Western blotting (WB) with an antibody to Thr^34-phosphorylated survivin (a-survivinT34*, top panel) or with an antibody to survivin (a-survivin, lower panel) followed by chemiluminescence. For all panels, relative molecular weight markers in kDa are shown on the left.
as §2
Luciferase values were normalized to β-galactosidase expression.

[4] = tested on: survivin expression in MCF-7 cells; assay: Survivin expression by Western blotting in MCF-7 cells; format: cell-based, human
Protocol: as §1, §2

MCF-7 xenografts = format: in vivo; details: adriamycin 2 mg/kg or flavopiridol 15 mg/kg alone, i.p.
Text: Each complete cycle was separated by 2 d without treatment.
This test generates a P value testing the null hypothesis that the survival curves are identical in the overall populations.

p34^cdc2-cyclin B1 = p34^cdc2-cyclin B1 (Homo sapiens, UniProt P06493); assay: In vitro kinase assay with baculovirus-expressed p34^cdc2-cyclin B1; format: biochemical; details: 100 nM flavopiridol
Chain of p34^cdc2-cyclin B1 (P06493 whole entry): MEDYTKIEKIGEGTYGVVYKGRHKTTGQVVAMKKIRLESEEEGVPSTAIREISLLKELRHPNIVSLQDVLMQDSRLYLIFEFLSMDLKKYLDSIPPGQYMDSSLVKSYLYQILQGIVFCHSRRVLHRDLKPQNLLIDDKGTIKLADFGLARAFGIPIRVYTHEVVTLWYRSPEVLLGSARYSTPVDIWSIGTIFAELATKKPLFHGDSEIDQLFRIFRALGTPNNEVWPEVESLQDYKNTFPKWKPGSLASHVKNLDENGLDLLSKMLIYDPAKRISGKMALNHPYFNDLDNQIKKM
Chain of p34^cdc2-cyclin B1 (P14635 whole entry partner): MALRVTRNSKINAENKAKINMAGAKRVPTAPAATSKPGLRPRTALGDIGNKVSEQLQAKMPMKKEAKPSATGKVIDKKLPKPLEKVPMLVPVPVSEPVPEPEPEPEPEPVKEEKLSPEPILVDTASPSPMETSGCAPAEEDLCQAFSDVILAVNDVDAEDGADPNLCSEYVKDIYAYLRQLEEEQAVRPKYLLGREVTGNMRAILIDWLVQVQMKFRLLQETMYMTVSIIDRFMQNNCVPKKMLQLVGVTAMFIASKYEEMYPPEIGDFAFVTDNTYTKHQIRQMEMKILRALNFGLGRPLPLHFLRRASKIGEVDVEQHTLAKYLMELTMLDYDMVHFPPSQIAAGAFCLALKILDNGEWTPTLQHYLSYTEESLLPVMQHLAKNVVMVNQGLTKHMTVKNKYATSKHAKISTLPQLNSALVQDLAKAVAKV
Protocol: as §3, §2

p34^cdc2 = target: T1, p34^cdc2 (Homo sapiens, UniProt P06493); assay: H1 phosphorylation by p34^cdc2 immunoprecipitated from treated HeLa cells; format: cell-based; details: increasing concentrations of flavopiridol, 24 h
T1 construct: endogenous in cells; host or cells: HeLa cervical carcinoma cells (ATCC)
T1 sequence (P06493 whole entry): as the sequence (P06493 whole entry) above
T1 sequence (P14635 whole entry partner): as the sequence (P14635 whole entry partner) above
Protocol: as §3, §2

[5] = tested on: p34^cdc2 kinase activity (MPM-2 epitope) in HeLa cells; assay: MPM-2 mitotic phosphoepitope expression (p34^cdc2 kinase activity) in HeLa cells; format: cell-based, human; details: HeLa
[6] = tested on: survivin phosphorylation on Thr^34 in MCF-7 cells; assay: Survivin phosphorylation on Thr^34 in MCF-7 cells; format: cell-based, human; details: flavopiridol in the presence of 100 nM adriamycin
Protocol: as §2

CN1CC[C@H](c2c(O)cc(O)c3c(=O)cc(-c4ccccc4Cl)oc23)[C@H](O)C1 [flavopiridol]
survivin expression ([1]; 1 and 25 nM flavopiridol and between 12 and 72 hours): modest increase in survivin expression
survivin expression ([1]; flavopiridol 100 nM, 84-96 h treatment): Nearly complete loss of survivin expression
survivin expression ([1]; higher flavopiridol concentrations, 24 h): complete loss of survivin expression
survivin expression, concentration dependence ([1]; increasing flavopiridol concentrations, 48 h): concentration-dependent decrease in survivin expression
population with hypodiploid (apoptotic) DNA content (HeLa cells): concentration-dependent increase in the population with hypodiploid (apoptotic) DNA content
Bcl-2 expression [2]: did not affect expression of antiapoptotic Bcl-2
survivin phosphorylation on Thr^34 [3]: concentration-dependent inhibition of phosphorylation on Thr^34
survivin levels ([4]; anti-cancer agents (adriamycin, UVB) 18 h followed by flavopiridol 72 h): suppressed survivin levels to background values of untreated cultures
survivin levels ([4]; flavopiridol alone 100 nM for 72 h): did not significantly affect survivin levels
kinetics of tumor growth vs vehicle (MCF-7 xenografts): did not affect the kinetics of tumor growth
phosphorylation of H1 and wild type survivin by p34^cdc2-cyclin B1 (p34^cdc2-cyclin B1): suppressed phosphorylation of H1 and wild type survivin
H1 phosphorylation by immunoprecipitated p34^cdc2 (p34^cdc2): dose-dependent inhibition of H1 phosphorylation
MPM-2 mitotic phosphoepitope expression ([5]; taxol 0.2 μM 16 h then Cdk inhibitor for 16 h (Purvalanol A 10 μM, alsterpaullone 20 μM, flavopiridol 250 nM, olomoucine 400 μM)): partially inhibited MPM-2 expression
MPM-2 mitotic phosphoepitope expression ([5]; taxol 0.2 μM 16 h then Cdk inhibitor for 32 h): suppressed mitotic phosphoprotein expression
survivin phosphorylation on Thr^34 [6]: suppressed survivin phosphorylation on Thr^34
